Source: patent US20240209028A1, “CNP COMPOUNDS” (priority 2022, published 2024)
Starred links: 1 amine or outer side, 2 acyl side, 3 side chain; linkers in the order of their positions; H or OH if unused. Positions of bridges follow the written chain, without caps; N, C: chain ends. Non-standard residues stand in square brackets, D forms with d. Residues, ends and D or L forms follow the SMILES beside them. No end group written: not given here. *: point of attachment. C20 diacid = O=C(O)CCCCCCCCCCCCCCCCCCC(=O)*; C18 diacid = O=C(O)CCCCCCCCCCCCCCCCC(=O)*; γGlu = O=C(O)[C@H](CCC(=O)[*:2])N[*:1]; AEEA = NCCOCCOCC(=O)O

Key:
[1] = PK of CNP compounds after i.v. and s.c. administration to rats; details: male, Sprague Dawley, in vivo, iv, rat, i.v., about 100 nmol/kg
Experimental: In order to assess the i.v. and s.c. PK/PD profile of CNP compounds of the present invention, formulations of CNP compounds were administered to rats, blood samples taken and exposure and cGMP response measured.
Quantitative plasma analysis of CNP-compounds: Plasma concentrations of CNP compounds were assayed by plasma protein precipitation and analysed by turboflow liquid chromatography mass spectrometry (TF-LC-MS). Calibrators were prepared by spiking either blank rat or minipig plasma with the relevant CNP compound in the range from 0.5 to 2000 nM. Calibrators, plasma blanks or study samples were prepared for TF-LC-MS by protein precipitation by adding three or four volumes of either ethanol or methanol containing 20 nM of internal standard to one volume of sample. For some compounds, formic acid was added to the precipitation reagent (the final concentration was 1% v/v). After the addition of the precipitation reagent, the mixture was centrifuged at 6200 rpm at 4° C. for 30 minutes. After centrifugation, one volume of supernatant was mixed with two volumes of water (with 1% v/v formic acid). The mixture was analysed by TF-LC-MS using a Cyclone turboflow column (0.5×50 mm, ThermoFisher Scientific) and either a XBridge Protein BEH C4 3.5 μm 300 Åor a XBridge Protein BEH C18 3.5 μm 130 Åanalytical column (both were 50×2.1 mm and obtained from Waters). […] The mass spectrometer was operated in positive ionisation mode. A TSQ Altis mass spectrometer (ThermoFisher Scientific) was used as detector in selected reaction monitoring mode (specific transition were optimised for each CNP compound). Linear calibration curves (weighed 1/×2) were used for calculating the concentration in the plasma samples. Quality control samples were included. The deviation between nominal and calculated concentration in the calibrators and quality control samples were below 15%.
Animals and dosing: Groups of 4-6 rats (male, Sprague Dawley, 350 g at arrival, Janvier, France) per compound and route of administration were dosed with a CNP compound formulated either in A) 8 mM sodium phosphate, 250 mM glycerol, 0.007% polysorbate 20, pH 7.4 or B) 5 mM sodium acetate, 250 mM glycerol, 0.007% polysorbate 20, pH 4.0 depending on the respective compound. S.c. dose was 300 nmol/kg, at a concentration of […] resulting in a dosing volume of 0.3 mL/kg, whereas i.v. dose was 100 nmol/kg, at a concentration of […] resulting in a dosing volume of 1 mL/kg.
Sampling: Sublingual blood samples of 250 uL were collected from unanaesthetised rats in EDTA-coated vials (Microvette 600K3E ref #15.1673.100 Sarstedt) at baseline (-1 h before dosing) as well as 5 min (only i.v. dosed groups), 2 h, 6 h, 24 h, 48 h and 72 h (only for exposure analysis) post-dosing. The blood samples were quickly stored on ice and centrifuged (4° C., 8000 RPM, 5 min) within 10 min of collection. Plasma samples of 50 μL were transferred to each micronic tube for either exposure or cGMP analysis, kept on dry ice and stored in a freezer (−20° C.). Rats had access to food (Altromin) and tap water ad libitum.
Analysis: PK parameters were calculated by non-compartment analysis (NCA) using software Phoenix WinNonlin (ver. 8.1 or later, Certara) for each animal. Clearance (Cl) was calculated as: Dose/AUCinf (linear up, log down). […] Bioavailability was calculated as dose normalized AUC's: (AUC(sc)/Dose(sc))/(AUC(iv)/Dose(iv)). Values in the table are means from individual animals (n=4-6 individual animals). The subsequent plots for cGMP plasma concentration versus time are (Y-axis) mean cGMP concentration (n=4-6 individual animals) after IV dosing and (X-axis) nominal plasma sampling time.
Plasma cGMP are reported as the mean.

[2] = molecular target: T1, human natriuretic peptide receptor 2 (hNPR2) (Homo sapiens, UniProt P20594); assay: In vitro hNPR2 activity assay (cGMP GloSensor reporter, HEK293); format: cell-based; details: for hNPR2 0% HSA. [EC50% rel CNP]: potency relative to CNP22 (0065); for EC50: 0% HSA, HEK293-hNPR2/GloSensor cells
T1 construct: expressed in transfected cells; host or cells: HEK293 (ATCC CRL-1573), clone 35, co-transfected with pGloSensor-42F
T1 sequence (P20594 23-1047): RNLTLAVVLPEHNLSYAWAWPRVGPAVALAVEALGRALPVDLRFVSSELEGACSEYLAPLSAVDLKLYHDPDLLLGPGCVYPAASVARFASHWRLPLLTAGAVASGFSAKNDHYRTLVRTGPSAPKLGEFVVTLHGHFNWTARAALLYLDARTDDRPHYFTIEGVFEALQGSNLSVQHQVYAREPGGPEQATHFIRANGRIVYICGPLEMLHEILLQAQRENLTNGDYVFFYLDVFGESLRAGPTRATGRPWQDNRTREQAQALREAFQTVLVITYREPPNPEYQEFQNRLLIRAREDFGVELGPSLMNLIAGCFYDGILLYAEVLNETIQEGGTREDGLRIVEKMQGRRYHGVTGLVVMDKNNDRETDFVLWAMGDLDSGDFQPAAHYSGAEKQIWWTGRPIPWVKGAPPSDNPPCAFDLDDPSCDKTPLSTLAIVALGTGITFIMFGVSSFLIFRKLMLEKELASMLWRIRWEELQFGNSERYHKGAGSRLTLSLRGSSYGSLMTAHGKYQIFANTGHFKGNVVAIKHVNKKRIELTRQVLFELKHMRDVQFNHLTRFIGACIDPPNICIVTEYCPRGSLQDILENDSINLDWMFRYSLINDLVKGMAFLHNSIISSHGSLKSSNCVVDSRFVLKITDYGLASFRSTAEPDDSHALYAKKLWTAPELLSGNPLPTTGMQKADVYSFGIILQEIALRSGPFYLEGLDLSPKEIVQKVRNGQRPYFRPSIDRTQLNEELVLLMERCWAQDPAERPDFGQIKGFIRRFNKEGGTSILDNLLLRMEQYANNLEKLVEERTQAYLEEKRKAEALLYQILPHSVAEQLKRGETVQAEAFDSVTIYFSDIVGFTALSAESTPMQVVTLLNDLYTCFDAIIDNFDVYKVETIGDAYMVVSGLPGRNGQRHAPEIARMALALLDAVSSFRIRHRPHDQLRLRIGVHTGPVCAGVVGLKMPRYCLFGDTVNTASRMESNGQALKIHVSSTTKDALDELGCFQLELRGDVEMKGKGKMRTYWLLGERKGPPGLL
Method in brief: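 Potency is the EC50 from a four-parameter logistic fit, also expressed relative to the in-plate CNP22 control (×100), with at least two replicates. Compounds (ten concentrations, […], HSA-free diluent with 1% OVA, 0.01% Tween20) were incubated 30 min at 37 °C on HEK293 cells co-expressing hNPR2 and a GloSensor cGMP luciferase. Luminescence detected with Bright-Glo.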

Compound	clearance ([1]; read-out: Cl (L/hr/kg), i.v. administration (converted))	half-life ([1]; read-out: T½ (hr), i.v. administration (converted))	hNPR2 0% HSA. [EC50% rel CNP] [2]	EC50 [2]
CC[C@H](C)[C@@H]1NC(=O)[C@H](CCCNC(=N)N)NC(=O)[C@H](CC(=O)O)NC(=O)[C@H](CC(C)C)NC(=O)[C@@H]2CCCN2C(=O)[C@H](CC(C)C)NC(=O)CNC(=O)[C@H](Cc2ccccc2)NC(=O)[C@@H](NC(=O)CNC(=O)[C@H](CCCCN)NC(=O)[C@H](CO)NC(=O)[C@H](CC(C)C)NC(=O)CNC(=O)[C@H](CCCCN)NC(=O)[C@H](CCCCN)NC(=O)[C@H](CCC(N)=O)NC(=O)[C@H](C)NC(=O)CNC(=O)[C@H](CCC(=O)O)NC(=O)[C@H](Cc2ccc(O)cc2)NC(=O)COCCOCCNC(=O)COCCOCCNC(=O)CC[C@H](NC(=O)CCCCCCCCCCCCCCCCCCC(=O)O)C(=O)O)CSSC[C@@H](C(=O)O)NC(=O)CNC(=O)[C@H](CC(C)C)NC(=O)CNC(=O)[C@H](CO)NC(=O)[C@H](CC(C)C)NC(=O)[C@H](CO)NC(=O)CNC1=O [compound 1376] ({C20 diacid-γGlu-AEEA-AEEA}-YEGAQKKGLSKGCFGLPLDRIGSLSGLGC-OH; disulfide 13-29)	0.00418 L/h/kg	9.55 h		
CC[C@H](C)[C@@H]1NC(=O)[C@H](CCCNC(=N)N)NC(=O)[C@H](CC(=O)O)NC(=O)[C@H](CC(C)C)NC(=O)[C@@H]2CCCN2C(=O)[C@H](CC(C)C)NC(=O)CNC(=O)[C@H](Cc2ccccc2)NC(=O)[C@@H](NC(=O)CNC(=O)[C@H](CCC(N)=O)NC(=O)[C@H](CO)NC(=O)[C@H](CC(C)C)NC(=O)CNC(=O)[C@H](CCCCN)NC(=O)[C@H](CCCCN)NC(=O)[C@H](CCC(N)=O)NC(=O)[C@H](C)NC(=O)CNC(=O)[C@@H]2CCCN2C(=O)[C@H](C)NC(=O)[C@H](CCC(N)=O)NC(=O)CNC(=O)[C@@H]2CCCN2C(=O)[C@H](C)NC(=O)[C@H](CCC(N)=O)NC(=O)CNC(=O)[C@@H]2CCCN2C(=O)[C@H](C)NC(=O)[C@H](CCC(N)=O)NC(=O)CNC(=O)CC[C@H](NC(=O)CCCCCCCCCCCCCCCCC(=O)O)C(=O)O)CSSC[C@@H](C(=O)O)NC(=O)CNC(=O)[C@H](CC(C)C)NC(=O)CNC(=O)[C@H](CO)NC(=O)[C@H](CC(C)C)NC(=O)[C@H](CO)NC(=O)CNC1=O [compound 1488] ({C18 diacid-γGlu}-GQAPGQAPGQAPGAQKKGLSQGCFGLPLDRIGSLSGLGC-OH; disulfide 23-39)			29.3%	
CC[C@H](C)[C@@H]1NC(=O)[C@H](CCCNC(=N)N)NC(=O)[C@H](CCC(=O)O)NC(=O)[C@H](CC(C)C)NC(=O)[C@@H]2CCCN2C(=O)[C@H](CC(C)C)NC(=O)CNC(=O)[C@H](Cc2ccccc2)NC(=O)[C@@H](NC(=O)CNC(=O)[C@H](CCC(N)=O)NC(=O)[C@H](CO)NC(=O)[C@H](CC(C)C)NC(=O)CNC(=O)[C@H](CCCCN)NC(=O)[C@H](CCCCN)NC(=O)[C@H](CCC(N)=O)NC(=O)[C@H](C)NC(=O)CNC(=O)[C@H](CCCCN)NC(=O)[C@H](Cc2ccc(O)cc2)NC(=O)COCCOCCNC(=O)COCCOCCNC(=O)COCCOCCNC(=O)COCCOCCNC(=O)CC[C@H](NC(=O)CC[C@H](NC(=O)CCCCCCCCCCCCCCCCC(=O)O)C(=O)O)C(=O)O)CSSC[C@@H](C(=O)O)NC(=O)CNC(=O)[C@H](CC(C)C)NC(=O)CNC(=O)[C@H](CO)NC(=O)[C@H](CC(C)C)NC(=O)[C@H](CO)NC(=O)CNC1=O [compound 1493] ({C18 diacid-γGlu-γGlu-AEEA-AEEA-AEEA-AEEA}-YKGAQKKGLSQGCFGLPLERIGSLSGLGC-OH; disulfide 13-29; C-terminus assumed)			11.5%	0.8 nM
CC[C@H](C)[C@@H]1NC(=O)[C@H](CCCNC(=N)N)NC(=O)[C@H](CC(=O)O)NC(=O)[C@H](CC(C)C)NC(=O)[C@H](CCCCN)NC(=O)[C@H](CC(C)C)NC(=O)CNC(=O)[C@H](Cc2ccccc2)NC(=O)[C@@H](NC(=O)CNC(=O)[C@H](CCCCN)NC(=O)[C@H](CO)NC(=O)[C@H](CC(C)C)NC(=O)CNC(=O)[C@H](CCCCN)NC(=O)[C@H](CCCCN)NC(=O)[C@H](CC(N)=O)NC(=O)[C@H](C)NC(=O)CNC(=O)[C@H](CCCCN)NC(=O)[C@H](Cc2ccc(O)cc2)NC(=O)[C@H](CCCCN)NC(=O)[C@H](CCCNC(=N)N)NC(=O)[C@H](C)NC(=O)[C@H](CC(N)=O)NC(=O)[C@@H]2CCCN2C(=O)[C@H](Cc2c[nH]cn2)NC(=O)[C@H](CCC(=O)O)NC(=O)[C@@H](N)CCC(N)=O)CSSC[C@@H](C(=O)O)NC(=O)CNC(=O)[C@H](CC(C)C)NC(=O)CNC(=O)[C@H](CO)NC(=O)[C@H](CCSC)NC(=O)[C@H](CO)NC(=O)CNC1=O [compound 1510]			139.2%	0.05 nM
{C18 diacid-γGlu-AEEA-AEEA}-GQAPGQAPGQAPGQAPGQAPGLSKGCFGLKLDRIGSMSGLGC-OH (disulfide 26-42) [compound 0230]			0.4%	
{C18 diacid}-EEEEE[AEEA][AEEA][AEEA][AEEA]ARKYKGAQKKGLSQGCFGLPLDRIGSLSGLGC (disulfide 25-41) [compound 1475]			46.5%	
{C18 diacid}-EGEGEGEGE[AEEA][AEEA]ARKYKGAQKKGLSQGCFGLPLDRIGSLSGLGC-OH (disulfide 27-43) [compound 1476]			48.4%	
